“Also recorded” adds a separate entry of the source.
What was measured:
[1] = cited from earlier work
[2] = system: citrated human blood; assay: rotational thromboelastography (ROTEM) in whole blood; conditions: 250 nM apixaban alone vs untreated (PBS) control blood
Procedure: FIG. 2 provides a graph of rotational thromboelastograms performed using freshly collected, citrated human blood treated with 25 μg/mL corn trypsin inhibitor (to minimize variation in samples). […] Phosphate buffered saline (PBS) was added to one sample instead of apixaban […].
A coagulation initiator is added, and as the blood clots, rotation of the pin is restricted, which is detected optically by the instrument.

[3] = system: normal human platelet poor plasma (PPP); assay: thrombin generation assay (TGA) in platelet poor plasma; assay type: biochemical
[4] = tail-clip hemostasis experiments in mice; assay type: in vivo
[5] = target: FXa-antithrombin III (FXa-ATIII) complex (Homo sapiens, UniProt P00742); assay: FXa-antithrombin III complex formation in FX deficient plasma (ELISA); assay type: biochemical; conditions: 100 nM or 1 μM rivaroxaban
Sequence of FXa-antithrombin III (FXa-ATIII) complex (P00742 235-488 limits assumed): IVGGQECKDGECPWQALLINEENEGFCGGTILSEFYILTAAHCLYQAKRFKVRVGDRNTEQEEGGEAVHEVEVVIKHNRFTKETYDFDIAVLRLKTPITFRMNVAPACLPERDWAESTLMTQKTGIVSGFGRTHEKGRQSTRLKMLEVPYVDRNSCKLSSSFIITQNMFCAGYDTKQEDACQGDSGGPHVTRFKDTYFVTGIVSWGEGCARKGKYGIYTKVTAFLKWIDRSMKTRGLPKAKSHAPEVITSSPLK
Sequence of FXa-antithrombin III (FXa-ATIII) complex (P00742 41-179 limits assumed): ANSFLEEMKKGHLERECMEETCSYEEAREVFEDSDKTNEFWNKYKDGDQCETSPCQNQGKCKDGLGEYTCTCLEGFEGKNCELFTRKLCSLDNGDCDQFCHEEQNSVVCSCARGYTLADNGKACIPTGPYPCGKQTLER

| Structure (SMILES) | plasma protein binding [1] | effect on clot time [2] | effect on clot time ([2]; listed as Apixaban) | peak thrombin generation ([3]; 500 nM rivaroxaban alone) | effect on thrombin generation ([3]; 2.5 μM rivaroxaban alone) | effect on thrombin generation ([3]; inhibitor alone added to normal human plasma (PPP)) | blood loss ([4]; 50 mg/kg rivaroxaban alone) | effect on blood loss ([4]; rivaroxaban alone) | effect on FXa-ATIII complex formation [5] |
| --- | --- | --- | --- | --- | --- | --- | --- | --- | --- |
| COc1ccc(-n2nc(C(N)=O)c3c2C(=O)N(c2ccc(N4CCCCC4=O)cc2)CC3)cc1 [apixaban] | heavily protein-bound | prolonged the clot time | prolonged the clot time substantially |  |  |  |  |  |  |
| O=C(NC[C@H]1CN(c2ccc(N3CCOCC3=O)cc2)C(=O)O1)c1ccc(Cl)s1 [rivaroxaban] | heavily protein-bound |  |  | ~10 % of normal | completely abrogated thrombin generation | profoundly decrease thrombin generation; also recorded: dose-dependently inhibited thrombin generation | 217 % of normal | dose-dependently increased blood loss | dose-dependently inhibited |

— patent publication US20160235824A1, “Compositions and Methods for Increasing the Half-Life of Factor XA” (THE CHILDREN'S HOSPITAL OF PHILADELPHIA, priority 2013, published 2016)
